≈ marks a conversion by molar mass, not a printed value.
Legend:
[1] = target: T1, Adenosine receptor A1 (Cavia porcellus, UniProt P47745); type: cell membranes, Brain membranes
T1 sequence (P47745 whole entry): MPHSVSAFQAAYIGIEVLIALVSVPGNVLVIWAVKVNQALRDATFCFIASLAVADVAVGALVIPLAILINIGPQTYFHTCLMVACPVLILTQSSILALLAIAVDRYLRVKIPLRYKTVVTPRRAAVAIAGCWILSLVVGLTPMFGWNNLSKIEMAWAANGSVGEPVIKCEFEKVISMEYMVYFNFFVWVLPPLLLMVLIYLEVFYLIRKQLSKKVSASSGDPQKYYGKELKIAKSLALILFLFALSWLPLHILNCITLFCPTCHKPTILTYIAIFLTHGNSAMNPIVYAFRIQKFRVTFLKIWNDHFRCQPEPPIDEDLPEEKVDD

[2] = physchem; details: water
Description: Solubility of the compound(10 mg) was measured in water(2.5 mL) at 20 degree celsius for 1 hr

[3] = Solubility was measured in saline; type: physicochemical
[4] = target: T1, Adenosine receptor A1; type: cell membranes, Brain membranes; remark: listed apart in the source
[5] = target: Adenosine A2 receptor (Homo sapiens, UniProt P29275+P29274); assay: Binding affinity for adenosine A2 receptor using N-[3H]-ethyladenosin-5''-uronamide in guinea pig forebrain membranes

SMILES	Ki [1] [nM]	solubility at 1 h [2] [µg/mL]	solubility [3] [µg/mL]	Ki [4] [nM]	Ki [5] [nM]
CCCN1C(=O)N2C[C@@H](CC)N=C2c2[nH]c(C34CC5CC(CC3C5)C4)nc21	2.7	3000 (≈ 8160 µM)			
CCCN1C(=O)N2C[C@H](CC)N=C2c2[nH]c(C34CC5CC(CC3C5)C4)nc21	120	2900 (≈ 7890 µM)			
CCCN1C(=O)N2CC(CC)N=C2c2[nH]c(C34CC5CC(CC3C5)C4)nc21 (stereo not given)		3200 (≈ 8710 µM)	990 (≈ 2690 µM)	5.7	
CCCn1c(=O)c2nc(C(C3CC3)C3CC3)[nH]c2n(CCC)c1=O		8.5 (≈ 25.7 µM)	5.8 (≈ 17.6 µM)		430
CCCn1c(=O)c2[nH]c(C3CCC(=O)C3)nc2n(CCC)c1=O (stereo not given)		220 (≈ 691 µM)	200 (≈ 628 µM)		
CCCn1c(=O)c2[nH]c(C3CCCC3)nc2n(CCC)c1=O [1,3-DIPROPYL-8-CYCLOPENTYLXANTHINE [DPCPX]]		3.3 (≈ 10.8 µM)			
CCCn1c(=O)c2[nH]c(C34CC5CC(CC3C5)C4)nc2n(CCC)c1=O [ROLOFYLLINE]		0.5 (≈ 1.4 µM)	0.6 (≈ 1.68 µM)		

Source: ChEMBL document CHEMBL1126134, “7,8-Dihydro-8-ethyl-2-(3-noradamantyl)-4-propyl-1H-imidazo[2,1-i]purin-5(4H)-one: a potent and water-soluble adenosine A1 antagonist” (J Med Chem, 1992)
